The values that follow come from US9884849B2, “Fluorinated benzofuranyl-pyrimidine derivatives containing a sulfoximine group” (Bayer Pharma Aktiengesellschaft, priority 2014, dated 2018).

SMILES strings stand for the structures.

By IC50 is commonly meant the concentration at which inhibition is half-maximal. A higher IC50 goes with lower potency. As usually defined, the Papp A→B is how fast a substance crosses the layer from the apical side. By Papp B→A is commonly meant how fast a substance crosses the layer from the basolateral side.

The target in one data set is T1, CDK9/CycT1 (Homo sapiens, UniProt P50750).
T1 construct: Recombinant full-length His-tagged human CDK9 and CycT1; His; purchased Invitrogen PV4131; host or cells: insect cells
Nature of the data set: CDK9/CycT1 kinase assay (Method 1a, TR-FRET). To be noted: 10 μM ATP; for Selectivity CDK9 over CDK2: IC50 (CDK2)/IC50 (CDK9): Methods 1a. and 2a. It counts as biochemical. The text has this: 1a. CDK9/CycT1 Kinase Assay:
CDK9/CycT1-Inhibitory Activity of Compounds of the Present Invention was Quantified Employing the CDK9/CycT1 TR-FRET Assay as Described in the Following Paragraphs:
Recombinant full-length His-tagged human CDK9 and CycT1, expressed in insect cells and purified by Ni-NTA affinity chromatography, were purchased from Invitrogen (Cat. No PV4131). As substrate for the kinase reaction biotinylated peptide biotin-Ttds-YISPLKSPYKISEG (C-terminus in amid form) was used which can be purchased e.g. form the company JERINI Peptide Technologies (Berlin, Germany). For the assay 50 nl of a 100 fold concentrated solution of the test compound in DMSO was pipetted into a black low volume 384 well microtiter plate (Greiner Bio-One, Frickenhausen, Germany), 2 μl of a solution of CDK9/CycT1 in aqueous assay buffer [50 mM Tris/HCl pH 8.0, 10 mM MgCl2, 1.0 mM dithiothreitol, 0.1 mM sodium ortho-vanadate, 0.01% (v/v) Nonidet-P40 (Sigma)] were added and the mixture was incubated for 15 min at 22° C. to allow pre-binding of the test compounds to the enzyme before the start of the kinase reaction. Then the kinase reaction was started by the addition of 3 μl of a solution of adenosine-tri-phosphate (ATP, 16.7 μM=>final conc. in the 5 μl assay volume is 10 μM) and substrate (1.67 μM=>final conc. in the 5 μl assay volume is 1 μM) in assay buffer and the resulting mixture was incubated for a reaction time of 25 min at 22° C. The concentration of CDK9/CycT1 was adjusted depending of the activity of the enzyme lot and was chosen appropriate to have the assay in the linear range, typical concentrations were in the range of 1 μg/mL. The reaction was stopped by the addition of 5 μl of a solution of TR-FRET detection reagents (0.2 μM streptavidine-XL665 [Cisbio Bioassays, Codolet, France] and 1 nM anti-RB(pSer807/pSer811)-antibody from BD Pharmingen [#558389] and 1.2 nM LANCE EU-W1024 labeled anti-mouse IgG antibody [Perkin-Elmer, product no. AD0077]) in an aqueous EDTA-solution (100 mM EDTA, 0.2% (w/v) bovine serum albumin in 100 mM HEPES/NaOH pH 7.0).
The resulting mixture was incubated 1 h at 22° C. to allow the formation of complex between the phosphorylated biotinylated peptide and the detection reagents. Subsequently the amount of phosphorylated substrate was evaluated by measurement of the resonance energy transfer from the Eu-chelate to the streptavidine-XL. Therefore, the fluorescence emissions at 620 nm and 665 nm after excitation at 350 nm was measured in a HTRF reader, e.g. a Rubystar (BMG Labtechnologies, Offenburg, Germany) or a Viewlux (Perkin-Elmer). The ratio of the emissions at 665 nm and at […] was taken as the measure for the amount of phosphorylated substrate. The data were normalised (enzyme reaction without inhibitor=0% inhibition, all other assay components but no enzyme=100% inhibition).
(Time-resolved FRET reads energy transfer from a long-lived donor to a nearby acceptor.)

Data set [1] can be described thus: Caco-2 permeation assay (Method 4). The format is in vitro ADME. As to conditions: human, 2 μM test compound. On the procedure: 4. Caco-2 Permeation Assay:
Caco-2 cells (purchased from DSMZ Braunschweig, Germany) were seeded at a density of 4.5×10^4 cells per well on 24 well insert plates, 0.4 μm pore size, and grown for 15 days in DMEM medium supplemented with 10% fetal bovine serum, 1% GlutaMAX (100×, GIBCO), 100 U/mL penicillin, 100 μg/mL streptomycin (GIBCO) and 1% non essential amino acids (100×). Cells were maintained at 37° C. in a humified 5% CO2 atmosphere. Medium was changed every 2-3 day. Before running the permeation assay, the culture medium was replaced by a FCS-free hepes-carbonate transport buffer (pH 7.2). For assessment of monolayer integrity the transepithelial electrical resistance (TEER) was measured. Test compounds were predissolved in DMSO and added either to the apical or basolateral compartment in final concentration of 2 μM in transport buffer. Before and after 2 h incubation at 37° C. samples were taken from both compartments. Analysis of compound content was done after precipitation with methanol by LC/MS/MS analysis. Permeability (Papp) was calculated in the apical to basolateral (A→B) and basolateral to apical (B→A) directions. The apparent permeability was calculated using following equation: Papp=(Vr/Po)(1/S)(P2/t)
Where Vr is the volume of medium in the receiver chamber, Po is the measured peak area or height of the test drug in the donor chamber at t=o, S the surface area of the monolayer, P2 is the measured peak area of the test drug in the acceptor chamber after 2 h of incubation, and t is the incubation time. The efflux ratio basolateral (B) to apical (A) was calculated by dividing the Papp B-A by the Papp A-B. In addition the compound recovery was calculated.
Background: Passage across Caco-2 layers is used to estimate intestinal permeability.

T1 sequence (P50750 whole entry): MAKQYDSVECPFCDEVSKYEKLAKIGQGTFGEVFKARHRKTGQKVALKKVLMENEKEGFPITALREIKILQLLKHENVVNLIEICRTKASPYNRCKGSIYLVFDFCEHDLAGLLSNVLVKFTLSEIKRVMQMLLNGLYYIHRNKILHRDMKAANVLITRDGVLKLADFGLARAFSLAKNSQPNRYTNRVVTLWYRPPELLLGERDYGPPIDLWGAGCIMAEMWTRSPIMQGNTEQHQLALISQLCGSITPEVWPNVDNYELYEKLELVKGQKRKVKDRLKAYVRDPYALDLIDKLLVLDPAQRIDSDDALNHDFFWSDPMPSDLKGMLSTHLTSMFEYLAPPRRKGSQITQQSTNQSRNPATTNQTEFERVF
T1 sequence (O60563 whole entry partner): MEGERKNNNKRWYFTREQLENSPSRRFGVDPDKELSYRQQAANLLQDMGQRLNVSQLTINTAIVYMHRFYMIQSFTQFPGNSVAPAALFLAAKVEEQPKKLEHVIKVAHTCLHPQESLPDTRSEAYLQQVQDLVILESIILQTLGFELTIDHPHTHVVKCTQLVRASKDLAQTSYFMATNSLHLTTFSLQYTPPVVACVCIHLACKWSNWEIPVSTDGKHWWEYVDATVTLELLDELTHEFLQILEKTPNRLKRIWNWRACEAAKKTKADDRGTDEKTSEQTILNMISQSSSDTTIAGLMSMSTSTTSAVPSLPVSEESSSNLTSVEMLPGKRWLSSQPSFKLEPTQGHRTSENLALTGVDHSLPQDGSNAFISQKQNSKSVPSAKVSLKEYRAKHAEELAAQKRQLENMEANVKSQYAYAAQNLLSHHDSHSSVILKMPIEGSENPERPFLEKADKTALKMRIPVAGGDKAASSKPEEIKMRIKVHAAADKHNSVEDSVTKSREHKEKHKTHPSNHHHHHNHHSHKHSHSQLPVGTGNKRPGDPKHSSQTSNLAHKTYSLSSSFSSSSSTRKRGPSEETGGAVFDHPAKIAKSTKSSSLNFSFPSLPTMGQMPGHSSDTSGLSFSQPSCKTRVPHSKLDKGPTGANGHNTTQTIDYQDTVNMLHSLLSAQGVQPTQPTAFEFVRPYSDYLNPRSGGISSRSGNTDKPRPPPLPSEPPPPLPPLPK

For the molecule `Cc1cc(CS(C)(=O)=NC#N)cc(Nc2ncc(F)c(-c3ccc(F)c4ccoc34)n2)c1` (single isomer, unassigned) [Example 15, [(3-{[5-Fluoro-4-(4-fluoro-1-benzofuran-7-yl)pyrimidin-2-yl]amino}-5-methylbenzyl)-(methyl)oxido-λ^6-sulfanylidene]cyanamide], on CDK9/CycT1, the IC50 was found to be 2.4 nM and the “Selectivity CDK9 over CDK2: IC50 (CDK2)/IC50 (CDK9)” value (from here on “Selectivity CDK9 over CDK2: IC50”) amounted to 40.

For the molecule `CS(=O)(Cc1cc(F)cc(Nc2ncc(F)c(-c3ccc(F)c4ccoc34)n2)c1)=NC#N` (single isomer, unassigned) [Example 8, [(3-Fluoro-5-{[5-fluoro-4-(4-fluoro-1-benzofuran-7-yl)pyrimidin-2-yl]amino}benzyl)(methyl)-oxido-λ^6-sulfanylidene]cyanamide], on CDK9/CycT1, the IC50 is 1.6 nM and the “Selectivity CDK9 over CDK2: IC50” value is 39.

`CS(=N)(=O)Cc1cccc(Nc2ncc(F)c(-c3ccc(F)c4ccoc34)n2)c1` (single isomer, unassigned) [Example 5, 5-Fluoro-4-(4-fluoro-1-benzofuran-7-yl)-N-{3-[(S-methylsulfonimidoyl)-methyl]-phenyl}-pyrimidin-2-amine]: at CDK9/CycT1, the IC50 amounted to 3.7 nM and the “Selectivity CDK9 over CDK2: IC50” value worked out at 24.

As to `CS(=N)(=O)Cc1cc(Nc2ncc(F)c(-c3ccc(F)c4ccoc34)n2)cc(S(F)(F)(F)(F)F)c1` (racemic) [Example 18, (rac)-5-Fluoro-4-(4-fluoro-1-benzofuran-7-yl)-N-{3-[(S-methylsulfonimidoyl)methyl]-5-(pentafluoro-λ^6-sulfanyl)phenyl}pyrimidin-2-amine], on CDK9/CycT1, it took 2.9 nM to reach half-maximal inhibition (IC50) and the “Selectivity CDK9 over CDK2: IC50” value was 25.

Consider `CS(=O)(Cc1cc(F)cc(Nc2ncc(F)c(-c3ccc(F)c4ccoc34)n2)c1)=NC#N` (single isomer, unassigned) [Example 9, [(3-Fluoro-5-{[5-fluoro-4-(4-fluoro-1-benzofuran-7-yl)pyrimidin-2-yl]amino}benzyl)(methyl)-oxido-λ^6-sulfanylidene]cyanamide], for which, on CDK9/CycT1, the midpoint of inhibition, the IC50, lay at 2.1 nM and the “Selectivity CDK9 over CDK2: IC50” value was 42.

Consider `CS(=N)(=O)Cc1cccc(Nc2ncc(F)c(-c3ccc(F)c4ccoc34)n2)c1` (racemic) [Example 4, (rac)-5-Fluoro-4-(4-fluoro-1-benzofuran-7-yl)-N-{3-[(S-methylsulfonimidoyl)-methyl]phenyl}-pyrimidin-2-amine], for which, at CDK9/CycT1, the half-maximal inhibitory concentration (IC50) came out at 4.6 nM and the “Selectivity CDK9 over CDK2: IC50” value worked out at 24. For the same molecule, the efflux ratio at 2 h, 2 μM in data set [1] (Caco-2, pH 7.2, read-out: Efflux ratio (Papp B-A/Papp A-B)) was 0.57. Moreover, the Papp A→B at 2 h, 2 μM in data set [1] (Caco-2, 2 h incubation, pH 7.2, read-out: Papp A-B (Mari)) was 18.3 ×10⁻⁶ cm/s. In addition, the basolateral-to-apical permeability (Papp B→A) at 2 h, 2 μM in data set [1] (Caco-2, 2 h incubation, pH 7.2, read-out: Papp B-A (Mari)) came to 10.4 ×10⁻⁶ cm/s.

As for `CS(=O)(Cc1cccc(Nc2ncc(F)c(-c3ccc(F)c4ccoc34)n2)c1)=NC#N` (single isomer, unassigned) [Example 2, [(3-{[5-Fluoro-4-(4-fluoro-1-benzofuran-7-yl)pyrimidin-2-yl]amino}benzyl)(methyl)oxido-λ^6-sulfanylidene]cyanamide], on CDK9/CycT1, the IC50 came to 1.4 nM and the “Selectivity CDK9 over CDK2: IC50” value amounted to 14.

On to `CS(=O)(Cc1cc(F)cc(Nc2ncc(F)c(-c3ccc(F)c4ccoc34)n2)c1)=NC#N` (racemic) [Example 7, (rac)-[(3-Fluoro-5-{[5-fluoro-4-(4-fluoro-1-benzofuran-7-yl)pyrimidin-2-yl]amino}benzyl)(methyl)-oxido-λ^6-sulfanylidene]cyanamide], for which, at CDK9/CycT1, it took 4.1 nM to reach half-maximal inhibition (IC50) and the “Selectivity CDK9 over CDK2: IC50” value was 14.

On to `CS(=O)(Cc1cccc(Nc2ncc(F)c(-c3ccc(F)c4ccoc34)n2)c1)=NC#N` (racemic) [Example 1, (rac)-[(3-{[5-Fluoro-4-(4-fluoro-1-benzofuran-7-yl)pyrimidin-2-yl]amino}benzyl)(methyl)oxido-λ^6-sulfanylidene]cyanamide], for which, at CDK9/CycT1, half-maximal inhibition (IC50) required 2.3 nM and the “Selectivity CDK9 over CDK2: IC50” value worked out at 32.

As for `CS(=N)(=O)Cc1cc(F)cc(Nc2ncc(F)c(-c3ccc(F)c4ccoc34)n2)c1` (racemic) [Example 10, (rac)-5-Fluoro-4-(4-fluoro-1-benzofuran-7-yl)-N-{3-fluoro-5-[(S-methylsulfonimidoyl)-methyl]-phenyl}-pyrimidin-2-amine], on CDK9/CycT1, the midpoint of inhibition, the IC50, lay at 3.1 nM and the “Selectivity CDK9 over CDK2: IC50” value came to 16.

For `CS(=O)(Cc1cccc(Nc2ncc(F)c(-c3ccc(F)c4ccoc34)n2)c1)=NC#N` (single isomer, unassigned) [Example 3, [(3-{[5-Fluoro-4-(4-fluoro-1-benzofuran-7-yl)pyrimidin-2-yl]amino}benzyl)(methyl)oxido-λ^6-sulfanylidene]cyanamide], at CDK9/CycT1, the IC50 was 3.3 nM and the “Selectivity CDK9 over CDK2: IC50” value is on record as 14.

Consider `CS(=O)(Cc1cc(Nc2ncc(F)c(-c3ccc(F)c4ccoc34)n2)cc(S(F)(F)(F)(F)F)c1)=NC#N` (racemic) [Example 17, (rac)-{[3-{[5-fluoro-4-(4-fluoro-1-benzofuran-7-yl)pyrimidin-2-yl]amino}-5-(pentafluoro-λ^6-sulfanyl)benzyl](methyl)oxido-λ^6-sulfanylidene}cyanamide], for which, on CDK9/CycT1, the midpoint of inhibition, the IC50, lay at 8 nM and the “Selectivity CDK9 over CDK2: IC50” value turned out to be 33.

Consider `Cc1cc(CS(C)(=O)=NC#N)cc(Nc2ncc(F)c(-c3ccc(F)c4ccoc34)n2)c1` (single isomer, unassigned) [Example 14, [(3-{[5-Fluoro-4-(4-fluoro-1-benzofuran-7-yl)pyrimidin-2-yl]amino}-5-methylbenzyl)-(methyl)oxido-λ^6-sulfanylidene]cyanamide], for which, on CDK9/CycT1, the IC50 was 4.4 nM and the “Selectivity CDK9 over CDK2: IC50” value is 15.

Take `Cc1cc(CS(C)(=N)=O)cc(Nc2ncc(F)c(-c3ccc(F)c4ccoc34)n2)c1` (racemic) [Example 16, (rac)-5-Fluoro-4-(4-fluoro-1-benzofuran-7-yl)-N-{3-methyl-5-[(S-methylsulfonimidoyl)-methyl]phenyl}pyrimidin-2-amine]: at CDK9/CycT1, the IC50 worked out at 4.9 nM and the “Selectivity CDK9 over CDK2: IC50” value is reported as 16.

As for `CS(=N)(=O)Cc1cc(F)cc(Nc2ncc(F)c(-c3ccc(F)c4ccoc34)n2)c1` (single isomer, unassigned) [Example 12, 5-Fluoro-4-(4-fluoro-1-benzofuran-7-yl)-N-{3-fluoro-5-[(S-methylsulfonimidoyl)-methyl]-phenyl}-pyrimidin-2-amine], at CDK9/CycT1, the IC50 came to 3.1 nM and the “Selectivity CDK9 over CDK2: IC50” value came to 15.
